Where “and” joins values, the source holds several entries; their conditions need not be identical. Equal entries are not always repeated. Where two headings read alike, the source gives them in different places.
Tests used:
[1] = Baboon PET imaging: brain uptake, kinetic analysis and SERT parameters; assay type: in vivo; details: male, baboon, intravenous, baboons
Method in brief: (§1)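 Two isoflurane-anaesthetised adult male baboons, each radioligand tested twice (test-retest); i.v. bolus, 91 min 3D emission scan with arterial sampling, MRI-defined regions. Brain uptake as % ID g^−1, with peak time and washout; VT from one-tissue compartment model (K1/k2) using arterial plasma input.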

[2] = test system: SERT; assay: as above; assay type: in vivo; details: for Kp: male, baboon, brain, intravenous
Method in brief: as §1

[3] = Plasma free fraction (f1) and filter retention by ultrafiltration; assay type: in vitro ADME, baboon; details: mean ± SD of four experiments
Experimental: Plasma and ultrafiltrate activities were counted, and f1 was calculated as the ratio of ultrafiltrate activity to total plasma activity. Triplicate aliquots of the radioligand in pH 7.4 Tris buffer were also processed to determine the filter retention of free tracer.

[4] = BP = VT ROI − VT CER, baboons, mean ± SD of four experiments
[5] = Mean ± SD of four experiments in two baboons
[6] = baboon A, experiments of FIGS. 5-9 (FIG. 10)
[7] = baboons, mean ± SD of four experiments
[8] = last scan 90 minutes, baboons, mean ± SD of four experiments
[9] = one-tissue compartment model, baboons, mean ± SD of four experiments

With `CN(C)Cc1ccccc1Sc1ccc(Br)cc1N` [[^11C]DAPA] as the compound, how does the Kp ([1]; brain regions (average of all regions), read-out: VT, average of all regions and all animals) read?
The Kp was 47.8 ± 16.

What about the Kp ([1]; cerebellum, one-tissue compartment model, mean ± SD of four experiments, read-out: VT Cerebellum (VT CER, nonspecific distribution volume)) of the same compound?
The Kp was 29.3 ± 2.9.

What about the “Binding potential Cingulate Cortex” value [2, 4] of the same compound?
The value was 7.9 ± 1.0 mL/g.

What about the “Binding potential Hippocampus” value [2, 4] of the same compound?
Its value is 15.5 ± 0.7 mL/g.

And the “Binding potential Midbrain” value [2, 4]?
Its value is 40.0 ± 4.3 mL/g.

And the “Binding potential Occipital Cortex” value [2, 4]?
Its value is 5.7 ± 1.9 mL/g.

What about the “Binding potential Striatum” value [2, 4] of the same compound?
The value was 22.9 ± 0.9 mL/g.

And the “Binding potential Temporal Cortex” value [2, 4]?
The value was 11.2 ± 3.3 mL/g.

What about the “Binding potential Thalamus” value [2, 4] of the same compound?
Its value is 45.1 ± 1.8 mL/g.

What about the “Equilibrium specific to non-specific partition coefficient (V3″) Cingulate Cortex” value ([2]; Baboon A, single experiment) of the same compound?
Its value is 0.29 and 0.26.

What about the “Equilibrium specific to non-specific partition coefficient (V3″) Hippocampus” value ([2]; Baboon A, single experiment) of the same compound?
The value was 0.54 and 0.48.

And the “Equilibrium specific to non-specific partition coefficient (V3″) Midbrain” value ([2]; Baboon A, single experiment)?
Its value is 1.41 and 1.37.

What about the “Equilibrium specific to non-specific partition coefficient (V3″) Occipital Cortex” value ([2]; Baboon A, single experiment) of the same compound?
Its value is 0.22 and 0.25.

What about the “Equilibrium specific to non-specific partition coefficient (V3″) Striatum” value ([2]; Baboon A, single experiment) of the same compound?
Its value is 0.73 and 0.72.

And the “Equilibrium specific to non-specific partition coefficient (V3″) Temporal Cortex” value ([2]; Baboon A, single experiment)?
The value was 0.48 and 0.42.

And the “Equilibrium specific to non-specific partition coefficient (V3″) Thalamus” value ([2]; Baboon A, single experiment)?
The value was 1.49 and 1.40.

What about the “Equilibrium specific to non-specific partition coefficient (V3″) Cingulate Cortex” value ([2]; Baboon B, single experiment) of the same compound?
The value was 0.25 and 0.27.

And the “Equilibrium specific to non-specific partition coefficient (V3″) Hippocampus” value ([2]; Baboon B, single experiment)?
Its value is 0.56 and 0.54.

And the “Equilibrium specific to non-specific partition coefficient (V3″) Midbrain” value ([2]; Baboon B, single experiment)?
The value was 1.42 and 1.27.

What about the “Equilibrium specific to non-specific partition coefficient (V3″) Occipital Cortex” value ([2]; Baboon B, single experiment) of the same compound?
Its value is 0.15.

What about the “Equilibrium specific to non-specific partition coefficient (V3″) Striatum” value ([2]; Baboon B, single experiment) of the same compound?
The value was 0.91 and 0.79.

What about the “Equilibrium specific to non-specific partition coefficient (V3″) Temporal Cortex” value ([2]; Baboon B, single experiment) of the same compound?
Its value is 0.30 and 0.32.

What about the “Equilibrium specific to non-specific partition coefficient (V3″) Thalamus” value ([2]; Baboon B, single experiment) of the same compound?
The value was 1.81 and 1.52.

What about the “Equilibrium specific to non-specific partition coefficient (V3″) Cingulate Cortex” value [2, 5] of the same compound?
The value was 0.27 ± 0.02.

And the “Equilibrium specific to non-specific partition coefficient (V3″) Hippocampus” value [2, 5]?
Its value is 0.53 ± 0.04.

And the “Equilibrium specific to non-specific partition coefficient (V3″) Midbrain” value [2, 5]?
Its value is 1.37 ± 0.07.

What about the “Equilibrium specific to non-specific partition coefficient (V3″) Occipital Cortex” value [2, 5] of the same compound?
Its value is 0.19 ± 0.05.

What about the “Equilibrium specific to non-specific partition coefficient (V3″) Striatum” value [2, 5] of the same compound?
The value was 0.79 ± 0.09.

What about the “Equilibrium specific to non-specific partition coefficient (V3″) Temporal Cortex” value [2, 5] of the same compound?
The value was 0.38 ± 0.09.

What about the “Equilibrium specific to non-specific partition coefficient (V3″) Thalamus” value [2, 5] of the same compound?
The value was 1.55 ± 0.18.

What about the “Thalamus to cerebellum ratio equal to true equilibrium ratio (V3″+1)” value [2, 6] of the same compound?
Its value is 2.49.

What about the “Time at which measured thalamus to cerebellum ratio equals the true equilibrium ratio (estimate of peak specific binding)” value [2, 6] of the same compound?
The value was 80 min.

And the “K1, average of all regions and all animals” value ([2]; baboons)?
Its value is 0.85 ± 0.23 mL/g/min.

And the “k2, average of all regions and all animals” value ([2]; baboons)?
Its value is 0.020 ± 0.008 min⁻¹.

What about the “V3″ expressed in percentage of [^11C]McN 5652 V3″” value ([2]; baboons, combining all regions) of the same compound?
The value was 151±18%.

And the “Mean regional peak uptake time” value ([2]; baboons, mean of all regions)?
The value was 50 ± 20 min.

And the “Mean regional wash-out (% decrease between peak time and last scan)” value ([2]; baboons, mean of all regions)?
The value was 12±11%.

What about the “Cingulate Cortex to cerebellum activity ratio at 90 minutes” value [2, 7] of the same compound?
The value was 1.27 ± 0.05.

And the “Hippocampus to cerebellum activity ratio at 90 minutes” value [2, 7]?
The value was 1.42 ± 0.13.

What about the “Midbrain to cerebellum activity ratio at 90 minutes” value [2, 7] of the same compound?
The value was 2.05 ± 0.31.

What about the “Occipital Cortex to cerebellum activity ratio at 90 minutes” value [2, 7] of the same compound?
The value was 1.19 ± 0.08.

And the “Regional uptake peak time Cerebellum” value [2, 7]?
Its value is 24 ± 10 min.

And the “Regional uptake peak time Cingulate Cortex” value [2, 7]?
Its value is 36 ± 8 min.

What about the “Regional uptake peak time Hippocampus” value [2, 7] of the same compound?
The value was 64 ± 15 min.

And the “Regional uptake peak time Midbrain” value [2, 7]?
The value was 71 ± 13 min.

And the “Regional uptake peak time Occipital Cortex” value [2, 7]?
Its value is 36 ± 8 min.

What about the “Regional uptake peak time Striatum” value [2, 7] of the same compound?
The value was 51 ± 19 min.

And the “Regional uptake peak time Temporal Cortex” value [2, 7]?
The value was 49 ± 10 min.

What about the “Regional uptake peak time Thalamus” value [2, 7] of the same compound?
Its value is 69 ± 13 min.

What about the “Striatum to cerebellum activity ratio at 90 minutes” value [2, 7] of the same compound?
Its value is 1.69 ± 0.12.

What about the “Temporal Cortex to cerebellum activity ratio at 90 minutes” value [2, 7] of the same compound?
The value was 1.35 ± 0.16.

What about the “Thalamus to cerebellum activity ratio at 90 minutes” value [2, 7] of the same compound?
Its value is 2.15 ± 0.30.

And the “Total brain uptake at 45 min” value ([2]; baboons, region encompassing the entire brain)?
The value was 0.018±0.002 % ID g^−1.

And the “Regional activity wash-out: % decrease from peak to last scan, Cerebellum” value [2, 8]?
The value was 29 ± 14%.

And the “Regional activity wash-out: % decrease from peak to last scan, Cingulate Cortex” value [2, 8]?
The value was 19 ± 9%.

What about the “Regional activity wash-out: % decrease from peak to last scan, Hippocampus” value [2, 8] of the same compound?
Its value is 4 ± 5%.

And the “Regional activity wash-out: % decrease from peak to last scan, Midbrain” value [2, 8]?
The value was 2 ± 3%.

And the “Regional activity wash-out: % decrease from peak to last scan, Occipital Cortex” value [2, 8]?
The value was 18 ± 7%.

What about the “Regional activity wash-out: % decrease from peak to last scan, Striatum” value [2, 8] of the same compound?
Its value is 8 ± 8%.

What about the “Regional activity wash-out: % decrease from peak to last scan, Temporal Cortex” value [2, 8] of the same compound?
The value was 11 ± 5%.

What about the “Regional activity wash-out: % decrease from peak to last scan, Thalamus” value [2, 8] of the same compound?
The value was 3 ± 4%.

What about the Kp ([2]; cingulate cortex, one-tissue compartment model, baboons, mean ± SD of four experiments, read-out: VT Cingulate Cortex) of the same compound?
The Kp was 37.1 ± 3.8.

And the Kp ([2]; hippocampus, one-tissue compartment model, baboons, mean ± SD of four experiments, read-out: VT Hippocampus)?
The Kp was 44.7 ± 3.4.

And the Kp ([2]; midbrain, one-tissue compartment model, baboons, mean ± SD of four experiments, read-out: VT Midbrain)?
Its Kp is 69.2 ± 7.

And the Kp ([2]; occipital cortex, one-tissue compartment model, baboons, mean ± SD of four experiments, read-out: VT Occipital Cortex)?
The Kp was 35 ± 4.8.

And the Kp ([2]; striatum, one-tissue compartment model, baboons, mean ± SD of four experiments, read-out: VT Striatum)?
Its Kp is 52.1 ± 3.

And the Kp ([2]; temporal cortex, one-tissue compartment model, baboons, mean ± SD of four experiments, read-out: VT Temporal Cortex)?
The Kp was 40.5 ± 6.

What about the Kp ([2]; thalamus, one-tissue compartment model, baboons, mean ± SD of four experiments, read-out: VT Thalamus) of the same compound?
The Kp was 74.4 ± 3.1.

What about the “K1 Cerebellum” value [2, 9] of the same compound?
Its value is 0.99 ± 0.29 mL/g/min.

What about the “K1 Cingulate Cortex” value [2, 9] of the same compound?
Its value is 0.91 ± 0.24 mL/g/min.

What about the “K1 Hippocampus” value [2, 9] of the same compound?
Its value is 0.67 ± 0.16 mL/g/min.

And the “K1 Midbrain” value [2, 9]?
The value was 0.86 ± 0.27 mL/g/min.

And the “K1 Occipital Cortex” value [2, 9]?
Its value is 0.83 ± 0.17 mL/g/min.

And the “K1 Striatum” value [2, 9]?
Its value is 0.90 ± 0.26 mL/g/min.

What about the “K1 Temporal Cortex” value [2, 9] of the same compound?
The value was 0.78 ± 0.18 mL/g/min.

What about the “K1 Thalamus” value [2, 9] of the same compound?
The value was 0.89 ± 0.26 mL/g/min.

What about the “K2 Cerebellum” value [2, 9] of the same compound?
The value was 0.034 ± 0.009 min⁻¹.

And the “K2 Cingulate Cortex” value [2, 9]?
The value was 0.025 ± 0.006 min⁻¹.

What about the “K2 Hippocampus” value [2, 9] of the same compound?
Its value is 0.015 ± 0.003 min⁻¹.

What about the “K2 Midbrain” value [2, 9] of the same compound?
Its value is 0.012 ± 0.003 min⁻¹.

What about the “K2 Occipital Cortex” value [2, 9] of the same compound?
Its value is 0.024 ± 0.005 min⁻¹.

And the “K2 Striatum” value [2, 9]?
The value was 0.017 ± 0.005 min⁻¹.

And the “K2 Temporal Cortex” value [2, 9]?
The value was 0.019 ± 0.004 min⁻¹.

What about the “K2 Thalamus” value [2, 9] of the same compound?
The value was 0.012 ± 0.004 min⁻¹.

And the Filter retention ([3]; activity remaining on filter, radioligand dissolved in saline)?
Its Filter retention is 77.9 ± 6.6%.

And the fraction unbound at 20 min ([3]; male, monkey, baboon plasma, ultrafiltration)?
The fraction unbound at 20 min was 0.018 ± 0.005.
